Measured values reported in patent US10064858B2, “Methods and compositions for treating bacterial infections with iron chelators” (THE UNITED STATES OF AMERICA, AS REPRESENTED BY THE …, priority 2011, dated 2018).
“Also recorded” adds a separate entry of the source.

Tests used:
[1] = tested on: PA PAO1, PA 27853; assay: Checkerboard assay, chelator with antibiotic (FIC); assay type: cell-based, P. aeruginosa
Text: Drug interactions were initially evaluated with the “checkerboard” microdilution design, which provided a matrix of all drug combinations assayed in terms of fractions of the previously determined MIC. The checkerboard microdilution design is described in R. J. Tallarida, “Drug Synergism: Its Detection and Applications,” Journal of Pharmacology and Experimental Therapeutics, 865-872 (2001); and in R. L. White, et al., (1996), supra. FIGS. 39A and 39B show the wellplates having different concentrations of iron chelator and antibiotic, as labeled along the x-axis and y-axis.
The checkerboard assay was used to asses other combinations of iron chelators and antibiotics. The fractional inhibitory concentration index (FIC), which was calculated as follows: FIC=(MIC A in combination/MIC A)+(MIC B in combination/MIC B). Interaction was defined as synergistic if the FIC was <1.0, preferably <0.5, no interaction if the FIC was >1.0 and <4.0, and antagonistic if the FIC was >4.0.
The assay was run against the multi-drug resistant bacterial species AB 19606, AB 17978, KP ndm, PA PAO1, PA 27853, EC 35718, and EC 43888. Blank spaces indicate concentrations not tested. […] Against the species PA PAO1 and PA 27853, all the antibiotics except for Ami.

[2] = Maximum systemic dose without adverse side-effects, extrapolated; settings: human; systemic delivery; based on mouse and rat results
Description: The iron chelator is employed in an amount effective for the treatment and/or prevention of bacterial infection. The effective dosage seen in vitro is up to 2 mM based on molarity or up to 1 mg/mL. 2 mM or 1 mg/mL is an extremely high dosage for translating into in vivo. Previous experiments by Varinel Inc. have shown toxicity with VK28 at 30 mg/kg in a mouse or 70 mg/kg in a rat when delivered systemically/intravenously. […] Higher doses are suitable for topical administration. The iron chelator can present in an amount that is up to about 10% by weight, alternatively up to about 20% by weight of the topical composition. In some embodiments, the topical composition can comprise about 0.1% to about 20% of at least one iron chelator, alternatively about 1% to about 20%, alternatively about 5% to about 20%, alternatively about 5% to about 10%, and include, but are not limited to, for example, about 1%, about 2%, about 3%, about 4%, about 5%, about 6%, about 7%, about 8%, about 9%, about 10%, about 12%, about 15%, about 20%, and includes percentages and ranges there between and in increments of about 0.1%, about 0.25%, about 0.5%, about 1% and the like. Determination of an effective amount of VK28, or derivative thereof, to employ is well within the skill of one having ordinary skill in the art having knowledge of the teachings set forth herein.

[3] = tested on: AB5075 (MRSN959); assay: Infected punch biopsy wound in mice, topical treatment; assay type: in vivo
Text: This example provides an in vivo evaluation of the effectiveness of VK28 in treating a bacterial infection. Mice were wounded with 6 mm punch biopsy and infected with AB5075 (MRSN959) and treated daily for 14 days with poloxamer F-127 gel alone as a control composition (FIG. 11A) or F-127 gel containing 5% VK28 (as a topical composition containing an iron chelator).

[4] = tested on: Bioluminescent AB0057; assay: Bioluminescent AB0057 challenged with iron chelators; assay type: cell-based, Acinetobacter baumannii; settings: 100 μm; 4 hours; low iron media
Text: This example studies bioluminescent A. baumannii challenged with iron chelators. AB0057 is a strain of Acinetobacter baumannii available from Robert Bonomo, Case Western Reserve University, Cleveland, Ohio.
As a precursor to conducting this in vitro assay, AB0057 was transformed with a bioluminescent plasmid. The p16Slux plasmid is illustrated in FIG. 38, and further details regarding its development and use are set forth in Christian U. Riedel et al., “Construction of p16Slux, a Novel Vector for Improved Bioluminescent Labeling of Gram-Negative Bacteria,” Appl. Environ. Microbiol. 2007 November; 73(21): 7092-7095.
Bioluminescent AB0057 were grown overnight in LB media and sub-cultured into low iron media in a 96-well plate containing varying concentrations of iron chelators for 4 hours. Bacterial growth was measured by bioluminescence (relative light units). The iron chelators VK28 and DFO were tested along with chelators DIP, ETTA, and EDTA as controls. The chelators were tested a concentrations of 0 μM, […], 3.13 μM, 6.25 μM, 12.5 μM, 25 μM, 50 μM, and 100 μM.

[5] = tested on: Klebsiella pneumonia; assay: Growth (OD600) with VK28 in M9 media with magnesium / calcium; assay type: cell-based; settings: 50-200 μg/ml VK28, 24 hours
Description: Klebsiella pneumonia was grown in M9 media containing 2 mM MgSO4 for 24 hours in the presence of 0 μg/ml, 50 μg/ml, 100 μg/ml, or 200 μg/ml VK28. The OD600 was measured at 0, 4, and 24 hour and the results are shown in the time-kill curves of FIG. 16.
Klebsiella pneumonia was grown similar to as described in Example 19 in M9 media containing 2 mM MgSO4 and 1.34 mM CaCl2 for 24 hours in the presence of 0 μg/ml, 50 μg/ml, 100 μg/ml, or 200 μg/ml VK28. The OD600 was measured at 24 hour and the results are shown in the bar graph of FIG. 17.

| SMILES | FIC ([1]; PA 27853, in combination with Amikacin) | FIC ([1]; PA 27853, in combination with Cefotaxine) | FIC ([1]; PA 27853, in combination with Colisitin) | FIC ([1]; PA 27853, in combination with Doxycycline) | FIC ([1]; PA 27853, in combination with Rifampin) | FIC ([1]; PA PAO1, in combination with Cefotaxine) | FIC ([1]; PA PAO1, in combination with Colisitin) | FIC ([1]; PA PAO1, in combination with Doxycycline) | FIC ([1]; PA PAO1, in combination with Rifampin) | maximum dose without adverse side-effects [2] | wound healing ([3]; F-127 gel containing 5% VK28, topical, daily for 14 days, vs gel alone (FIG. 11)) | wound healing ([3]; composition containing 1% VK28, other mice) | wound healing ([3]; composition containing 5% VK28, other mice) | Bioluminescence (relative light units) [4] | inhibition of growth (OD600) ([5]; M9 with 2 mM MgSO4) | inhibition of growth (OD600) ([5]; M9 with 2 mM MgSO4 and 1.34 mM CaCl2) |
| --- | --- | --- | --- | --- | --- | --- | --- | --- | --- | --- | --- | --- | --- | --- | --- | --- |
| Cc1c(O)c(=O)ccn1C [ApoL1, 3-hydroxy-1,2-dimethyl-4(1H)-pyridone] | 1.25 | 0.75 | 0.75 | 0.75 | 0.75 | 0.75 | 0.75 | 0.75 | 0.75 |  |  |  |  |  |  |  |
| OCCN1CCN(Cc2ccc(O)c3ncccc23)CC1 [VK28, 5-(4-(2-hydroxyethyl)piperazin-1-ylmethyl)-8-hydroxyquinoline] |  |  |  |  |  |  |  |  |  | approximately 60 mg/kg | Healing scab and reduced wound size; also recorded: the wound treated with the control composition did not heal as well as the wound treated with the iron chelator composition | not particularly efficacious | efficacious in promoting wound healing | especially surprisingly lower | inhibition of growth is not reduced in the presence of magnesium | inhibition of growth is not reduced in the presence of magnesium and calcium |
